The record followed here is US9976141B2, “Compositions and methods for inhibiting gene expression of Hif2alpha” (Arrowhead Madison Inc., priority 2015, dated 2018).

This data set concerns human (tumor) Hif2α (EPAS1) mRNA. Nature of the data set: Hif2α knockdown in orthotopic RCC tumor bearing mice, single injection of RNAi trigger-delivery polymer conjugate, RT-qPCR (Table 7). The data set is classed as in vivo. The following applies: single tail vein injection, relative to isotonic glucose. The method in brief:
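Female athymic nude mice carried orthotopic A498-SEAP ccRCC kidney tumours, used 5–6 weeks after implantation. They received one tail-vein injection of RGD-targeted Hif2α RNAi trigger–polymer conjugate or isotonic glucose. Tumour Hif2α mRNA was measured by TaqMan RT-qPCR normalised to CycA (ΔΔCT) and expressed relative to glucose-treated mice.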
On the technique in general: In qPCR the cycle at which signal appears reflects the starting amount.

[1] abbreviates: RNAi trigger 50 μg, polymer 064 125 μg.
Setting [2] is: RNAi trigger 80 μg, polymer 126 400 μg.
The mark [3] stands for this setting: RNAi trigger 150 μg, polymer 100A 300 μg.

On to “AD03189 (antisense UGUAAAACAAUUGUGUACUUUAA; sense AAAGUACACAAUUGUUUUACA; Hif2alpha RNAi agent antisense strand; modified_base 2,4,6,8,10,14,16,18 /mod_base = “2′-deoxy-2′-fluoro corresponding nucleoside”; modified_base 1,3,5,7,9,11,12,13,15,17,19,20,21,22,23 /mod_base = “2′-O-methyl corresponding nucleoside”; modified_base 2,3,22,23 /mod_base = “5′-phosphorothioate corresponding nucleotide”; Hif2alpha RNAi agent sense strand; modified_base 3,5,7,9,10,11,13,15,19 /mod_base = “2′-deoxy-2′-fluoro corresponding nucleoside”; modified_base 1,2,4,6,8,12,14,16,17,18,20 /mod_base = “2′-O-methyl corresponding nucleoside”; modified_base 21 /mod_base = “3′-3′-linked nucleoti)”, for which the “Relative Expression day 4 (Hif2α mRNA in kidney tumor)” value under setting [1] is given as 0.245. “AD01291 (antisense TUUCAUGAAAUCGUUACGUUGGC; sense CAACGUAACGAUUUCAUGAAA; Hif2alpha RNAi agent antisense strand; modified_base 2,4,6,8,10,14,16,18,20 /mod_base = “2′-deoxy-2′-fluoro corresponding nucleoside”; modified_base 3,5,7,9,11,12,13,15,17,19,21,22,23 /mod_base = “2′-O-methyl corresponding nucleoside”; modified_base 2,3,22,23 /mod_base = “5′-phosphorothioate corresponding nucleotide”; Hif2alpha RNAi agent sense strand; modified_base 1,3,5,7,9,10,11,13,15,17,19,21 /mod_base = “2′-deoxy-2′-fluoro corresponding nucleoside”; modified_base 2,4,6,8,12,14,16,18,20 /mod_base = “2′-O-methyl corresponding nucleoside”; modified_base 2,3 /mod_base = “5′-phosphorothioate)”: the “Relative Expression day 4 (Hif2α mRNA in kidney tumor)” value under setting [2] worked out at 0.19. “AD01657 (antisense TUUCAUGAAAUCGUUACGUTT; sense ACGUAACGAUUUCAUGAAAT; Hif2alpha RNAi agent antisense strand; modified_base 2,4,6,8,10,12,14,15,18 /mod_base = “2′-deoxy-2′-fluoro corresponding nucleoside”; modified_base 3,5,7,9,11,13,16,17,19 /mod_base = “2′-O-methyl corresponding nucleoside”; modified_base 2,21 /mod_base = “5′-phosphorothioate corresponding nucleotide”; Hif2alpha RNAi agent sense strand; modified_base 1,3,4,7,9,11,13,15,17,19 /mod_base = “2′-deoxy-2′-fluoro corresponding nucleoside”; modified_base 2,5,6,8,10,12,14,16,18 /mod_base = “2′-O-methyl corresponding nucleoside”; modified_base 20 /mod_base = “3′-3′-linked nucleotide”; modified_base 1 /)”: the “Relative Expression day 4 (Hif2α mRNA in kidney tumor)” value (RNAi trigger 100 μg, polymer 100A 250 μg) is 0.256. For “AD01032 (antisense TAAGUUAAGCUCCCAUACATT; sense UGUAUGGGAGCUUAACUUAT; Hif2alpha RNAi agent antisense strand; modified_base 2,4,8,10,12,14,16,18 /mod_base = “2′-deoxy-2′-fluoro corresponding nucleoside”; modified_base 3,5,7,9,11,13,15,17,19 /mod_base = “2′-O-methyl corresponding nucleoside”; modified_base 6 /mod_base = “2′-3′ seco corresponding nucleotide”; modified_base 21 /mod_base = “5′-phosphorothioate corresponding nucleotide”; Hif2alpha RNAi agent sense strand; modified_base 1,3,5,7,9,11,13,15,17,19 /mod_base = “2′-deoxy-2′-fluoro corresponding nucleoside”; modified_base 2,4,6,8,10,12,14,16,18 /mod_base = “2′-O-methyl corresponding nucleoside”; modified_b)”, the “Relative Expression day 4 (Hif2α mRNA in kidney tumor)” value under setting [2] is given as 1.00. On to “AD03190 (antisense AGUAAAACAAUUGUGUACUUUAA; sense AAAGUACACAAUUGUUUUACT; Hif2alpha RNAi agent antisense strand; modified_base 2,4,6,8,10,14,16,18 /mod_base = “2′-deoxy-2′-fluoro corresponding nucleoside”; modified_base 1,3,5,7,9,11,12,13,15,17,19,20,21,22,23 /mod_base = “2′-O-methyl corresponding nucleoside”; modified_base 2,3,22,23 /mod_base = “5′-phosphorothioate corresponding nucleotide”; Hif2alpha RNAi agent sense strand; modified_base 3,5,7,9,10,11,13,15,19 /mod_base = “2′-deoxy-2′-fluoro corresponding nucleoside”; modified_base 1,2,4,6,8,12,14,16,17,18,20 /mod_base = “2′-O-methyl corresponding nucleoside”; modified_base 21 /mod_base = “3′-3′-linked nucleoti)”, for which the “Relative Expression day 4 (Hif2α mRNA in kidney tumor)” value under setting [1] is given as 0.269. For the substance “AD03257 (antisense UUUCAUGAAAUCGUUACGUUG; sense ACGUAACGAUUUCAUGAAAT; Hif2alpha RNAi agent antisense strand; modified_base 2,8,10,14 /mod_base = “2′-deoxy-2′-fluoro corresponding nucleoside”; modified_base 1,3,4,5,6,7,9,11,12,13,15,16,17,18,19,20,21 /mod_base = “2′-O-methyl corresponding nucleoside”; modified_base 2,3,20,21 /mod_base = “5′-phosphorothioate corresponding nucleotide”; Hif2alpha RNAi agent sense strand; modified_base 7,8,9 /mod_base = “2′-deoxy-2′-fluoro corresponding nucleoside”; modified_base 1,2,3,4,5,6,10,11,12,13,14,15,16,17,18,19 /mod_base = “2′-O-methyl corresponding nucleoside”; modified_base 20 /mod_base = “3′-3′-linked nucleotide”; modi)”, under setting [1], the “Relative Expression day 4 (Hif2α mRNA in kidney tumor)” value came to 0.203. With “AD03258 (antisense AUUCAUGAAAUCGUUACGUUG; sense ACGUAACGAUUUCAUGAAUT; Hif2alpha RNAi agent antisense strand; modified_base 2,8,10,14 /mod_base = “2′-deoxy-2′-fluoro corresponding nucleoside”; modified_base 1,3,4,5,6,7,9,11,12,13,15,16,17,18,19,20,21 /mod_base = “2′-O-methyl corresponding nucleoside”; modified_base 2,3,20,21 /mod_base = “5′-phosphorothioate corresponding nucleotide”; Hif2alpha RNAi agent sense strand; modified_base 7,8,9 /mod_base = “2′-deoxy-2′-fluoro corresponding nucleoside”; modified_base 1,2,3,4,5,6,10,11,12,13,14,15,16,17,18,19 /mod_base = “2′-O-methyl corresponding nucleoside”; modified_base 20 /mod_base = “3′-3′-linked nucleotide”; modi)”, the “Relative Expression day 4 (Hif2α mRNA in kidney tumor)” value under setting [1] stood at 0.137. For “AD01404 (antisense TUUCAUGAAAUCGUUACGUCGGCUAU; sense UAUAUCGACGUAACGAUUUCAUGAAA; Hif2alpha RNAi agent antisense strand; modified_base 25 modified base = “2′-hydroxy corresponding nucleoside”; modified_base 2,4,6,10,12,14,16,18,20 /mod_base = “2′-deoxy-2′-fluoro corresponding nucleoside”; modified_base 3,5,7,9,11,13,15,17,19,21,22,23,24,26 /mod_base = “2′-O-methyl corresponding nucleoside”; modified_base 8 /mod_base = “2′-3′ seco corresponding nucleotide”; modified_base 2,3,23,; Hif2alpha RNAi agent sense strand; modified_base 2,4 modified base = “2′-hydroxy corresponding nucleoside”; modified_base 6,8,10,12,14,16,18,20,22,24,26 /mod_base = “2′-deoxy-2′-fluoro correspondi)”, the “Relative Expression day 4 (Hif2α mRNA in kidney tumor)” value under setting [3] was 0.58.

For “AD01410 (antisense TUUCAUGAAAUCGUUACGUCGGCUAU; sense UAUAUCGACGUAACGAUUUCAUGAAA; Hif2alpha RNAi agent antisense strand; modified_base 25 modified base = “2′-hydroxy corresponding nucleoside”; modified_base 2,4,6,8,10,12,14,16,18,20 /mod_base = “2′-deoxy-2′-fluoro corresponding nucleoside”; modified_base 3,5,7,11,13,15,17,19,21,22,23,24,26 /mod_base = “2′-O-methyl corresponding nucleoside”; modified_base 9 /mod_base = “2′-3′ seco corresponding nucleotide”; modified_base 2,24 /m; Hif2alpha RNAi agent sense strand; modified_base 2,4 modified base = “2′-hydroxy corresponding nucleoside”; modified_base 6,8,10,12,14,16,18,20,22,24,26 /mod_base = “2′-deoxy-2′-fluoro correspondi)”, under setting [3], the “Relative Expression day 4 (Hif2α mRNA in kidney tumor)” value came to 0.41.
